The values that follow come from ChEMBL document CHEMBL1201862, “PubChem BioAssay data set” (2004).

Several values for one entry are separate records, joined by “and”; a condition that tells them apart may be missing. Equal entries are not always repeated.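 96-well plates; 48 h exposure; 5 concentrations. Endpoints by linear interpolation between flanking doses. Not reached: highest tested concentration assigned. Abbreviation: GI50, concentration required for 50% inhibition of growth.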 Activity calls are given as the source filed them. Cut-off read from the data, not from the text of the source: active = GI50 up to about 1.1 µM and inactive = higher. Bounds are passed on as bounds.

The GI50 is the concentration at which growth is held to half of that of the control.

Some test systems named below: TK-10; PC-3; NCI-H460; OVCAR-8; SK-MEL-28; HT-29; NCI-H23; HCT-116; COLO 205; CAKI-1; RXF 393; HL-60; SF-268; KM12; NCI/ADR-RES; SK-MEL-2; T47D; MDA-MB-435; OVCAR-4; EKVX.
Holding throughout (experiment): DTP human tumour cell line panel, 48 h

Consider `O=C(O)C12C3CCC(O3)C1(C(=O)O)C1CCC2O1` (stereo not given), for which the GI50 in the assay on TK-10, with PC-3, in the assay with NCI-H460, with OVCAR-8, with SK-MEL-28 and with HT-29 was > 100 µM (inactive) in each case. Also, the GI50 in the assay with NCI-H23 was > 100 µM (inactive); with HCT-116, > 100 µM (inactive); with COLO 205, > 100 µM (inactive); with CAKI-1, > 100 µM (inactive); with RXF 393, > 100 µM (inactive) and 53.6 µM (inactive); with HL-60, > 100 µM (inactive). Further, the GI50 in the assay on SF-268, in the assay with KM12, with NCI/ADR-RES, with SK-MEL-2, with T47D and with MDA-MB-435 was > 100 µM (inactive) in each case.

For `COc1cc2c(c(O)c1OC)C(=O)[C@@H]1CCC(=O)N1C2`, the GI50 in the assay on TK-10, in the assay with PC-3, with NCI-H460, in the assay on OVCAR-8, in the assay on SK-MEL-28 and in the assay with HT-29 was > 100 µM (inactive) in each case. Further, the GI50 with NCI-H23, in the assay with HCT-116, with COLO 205, in the assay on CAKI-1, in the assay on OVCAR-4 and in the assay with HL-60 was > 100 µM (inactive) in each case. The GI50 with SF-268, in the assay on KM12, in the assay with NCI/ADR-RES, in the assay on SK-MEL-2, in the assay on T47D and in the assay on EKVX was > 100 µM (inactive) in each case. In the assay with MDA-MB-435, the GI50 is > 100 µM (inactive).

Turning to `Cc1cc2[nH]c3c(C#N)c(-c4ccccc4)c(/N=N/c4ccc(F)cc4)c(=O)n3c2cc1C`, the GI50 in the assay on TK-10 was > 100 µM (inactive); in the assay on PC-3, > 100 µM (inactive); with NCI-H460, 83.9 µM (inactive); with SK-MEL-28, > 100 µM (inactive); in the assay on NCI-H23 it was > 100 µM (inactive); in the assay with HCT-116, 25.6 µM (inactive). Besides, the GI50 was > 100 µM (inactive) in the assay with COLO 205; > 100 µM (inactive) in the assay with CAKI-1; 91 µM (inactive) in the assay with OVCAR-4; > 100 µM (inactive) with RXF 393; 35.9 µM (inactive) in the assay with SF-268; > 100 µM (inactive) with NCI/ADR-RES. The GI50 with SK-MEL-2 was > 100 µM (inactive); in the assay with T47D, 4.22 µM (inactive); in the assay on EKVX, > 100 µM (inactive); in the assay on MDA-MB-435, > 100 µM (inactive).

`COC1/C=C/C(C)C(OC)CC(O)/C=C/C(C)C(C(C)C(OC)C(C)CCC(=O)C(C)C(C/C=C/N(C)C=O)OC)OC(=O)/C=C/C=C(\C)CC(OC)CC2=CC(=O)O[C@@H](C(C)C(OC)C1)[C@H]2O` (stereo not given in full): the concentration for 50% growth inhibition (GI50) is 0.29 µM (active) with TK-10; 0.0873 µM (active) in the assay on PC-3; 0.0395 µM (active) with NCI-H460; 0.16 µM (active) with OVCAR-8; 0.0767 µM (active) in the assay with SK-MEL-28; 0.0845 µM (active) with HT-29. The concentration for 50% growth inhibition (GI50) in the assay on NCI-H23 is 0.26 µM (active); in the assay with HCT-116 it was 0.0188 µM (active); with COLO 205, 0.0301 µM (active); in the assay on CAKI-1, 0.0332 µM (active); with OVCAR-4, 0.12 µM (active); in the assay on RXF 393, 0.0735 µM (active). For the same compound, the concentration for 50% growth inhibition (GI50) is 0.064 µM (active) with HL-60; 0.153 µM (active) with SF-268; 0.0753 µM (active) in the assay with KM12; 0.195 µM (active) in the assay with NCI/ADR-RES; 0.912 µM (active) with T47D; 0.386 µM (active) with EKVX. Moreover, the 50% growth inhibitory concentration (GI50) in the assay on MDA-MB-435 was 0.182 µM (active).

Regarding `[O-][S+]1CC[S+]([O-])CC[S+]([O-])CC1` (stereo not given), the GI50 in the assay on TK-10, with PC-3, in the assay with NCI-H460, with OVCAR-8, in the assay on SK-MEL-28 and in the assay with HT-29 was > 100 µM (inactive) in each case. Further, the GI50 with NCI-H23, with HCT-116, in the assay with COLO 205, with OVCAR-4, with HL-60 and in the assay on SF-268 was > 100 µM (inactive) throughout. Further, the GI50 with KM12, in the assay with NCI/ADR-RES, in the assay on T47D, in the assay with EKVX and in the assay with MDA-MB-435 was > 100 µM (inactive) in each case.

Take `COc1ccc(NC(=O)CSc2nc(C)nc3c2sc(=S)n3-c2ccccc2)cc1`: the GI50 was > 10 µM (inactive) in the assay on TK-10; > 10 µM (inactive) in the assay on PC-3; 3.73 µM (inactive) in the assay on NCI-H460; > 10 µM (inactive) in the assay on OVCAR-8; > 10 µM (inactive) in the assay with SK-MEL-28; > 10 µM (inactive) in the assay with HT-29. The GI50 in the assay with NCI-H23 was > 10 µM (inactive); with HCT-116, 8.28 µM (inactive); with COLO 205, 7.28 µM (inactive); in the assay with CAKI-1, 7.46 µM (inactive); in the assay with OVCAR-4 it was 3.18 µM (inactive); with RXF 393 it was > 10 µM (inactive). For the same compound, the GI50 was > 10 µM (inactive) in the assay with HL-60; > 10 µM (inactive) in the assay with SF-268; > 10 µM (inactive) in the assay with KM12; 8.51 µM (inactive) in the assay with NCI/ADR-RES; > 10 µM (inactive) in the assay with T47D; 7.67 µM (inactive) in the assay with EKVX. Moreover, the GI50 in the assay on MDA-MB-435 is 7.91 µM (inactive).

Regarding `COc1cc(O)c2c(c1)OCC1(Cc3cc(OC)c(OC)cc31)C2=O` (stereo not given), the GI50 in the assay with TK-10, in the assay with PC-3, in the assay on NCI-H460, in the assay with OVCAR-8, with SK-MEL-28 and in the assay on HT-29 was > 100 µM (inactive) each time. The GI50 in the assay with NCI-H23 is 72.9 µM (inactive); in the assay on HCT-116 it was 86.1 µM (inactive); in the assay with COLO 205 it was 90.2 µM (inactive); in the assay with CAKI-1, 52 µM (inactive); with OVCAR-4, 40 µM (inactive); in the assay on RXF 393, > 100 µM (inactive). The GI50 in the assay on HL-60 was > 100 µM (inactive); in the assay on SF-268 it was > 100 µM (inactive); in the assay on KM12, > 100 µM (inactive); with NCI/ADR-RES it was 88.9 µM (inactive); in the assay on SK-MEL-2, > 100 µM (inactive); in the assay with T47D, 11.9 µM (inactive). The GI50 in the assay on MDA-MB-435 is 29 µM (inactive).

As for `CN(CCCCCl)P(=O)(OCc1ccc([N+](=O)[O-])o1)OCC1OC(n2ccc(N)nc2=O)C(O)C1O` (stereo not given), the GI50 was 37.7 µM (inactive) in the assay with TK-10; 2.39 µM (inactive) with PC-3; 2.29 µM (inactive) in the assay on NCI-H460; 2.82 µM (inactive) in the assay with OVCAR-8; 2.33 µM (inactive) in the assay with SK-MEL-28; 4.61 µM (inactive) in the assay with HT-29. The GI50 in the assay with NCI-H23 is 5.79 µM (inactive); in the assay on HCT-116, 3.68 µM (inactive); with COLO 205, 1.05 µM (active); in the assay on CAKI-1 it was 55 µM (inactive); with OVCAR-4, 1.05 µM (active); with RXF 393, 6.21 µM (inactive). In addition, the GI50 was 4.15 µM (inactive) in the assay with HL-60; 7.6 µM (inactive) in the assay with SF-268; 3.24 µM (inactive) in the assay on KM12; 4.47 µM (inactive) with NCI/ADR-RES; 9.79 µM (inactive) in the assay on SK-MEL-2; 1.26 µM (inactive) in the assay on T47D. Besides, in the assay with MDA-MB-435, the GI50 was 1.98 µM (inactive).

Consider `O=C1N[C@H](C(=O)O)[C@@H](c2ccc(OCc3ccccc3)cc2)O1`, for which the GI50 was 27.4 µM (inactive) with TK-10; > 100 µM (inactive) with PC-3; 20.7 µM (inactive) with OVCAR-8; > 100 µM (inactive) with SK-MEL-28; > 100 µM (inactive) with HT-29; 40.4 µM (inactive) with NCI-H23. For the same compound, the GI50 was 31.7 µM (inactive) with HCT-116; > 100 µM (inactive) in the assay with COLO 205; 34.3 µM (inactive) in the assay with CAKI-1; 29.7 µM (inactive) in the assay with OVCAR-4; 12.9 µM (inactive) with RXF 393; 25.4 µM (inactive) in the assay on SF-268. Besides, the GI50 with KM12 is > 100 µM (inactive); in the assay on NCI/ADR-RES it was 22.5 µM (inactive); with SK-MEL-2, 26.2 µM (inactive); with T47D, 26.3 µM (inactive); with EKVX, 22.4 µM (inactive); with MDA-MB-435, > 100 µM (inactive).

Consider `NC(=O)CC(N)C(N)=O` (stereo not given), for which the GI50 in the assay with TK-10, in the assay on PC-3, in the assay with NCI-H460, with OVCAR-8, in the assay with SK-MEL-28 and with NCI-H23 was > 100 µM (inactive) throughout. The GI50 with HCT-116, in the assay on COLO 205, in the assay on CAKI-1, with OVCAR-4, in the assay on RXF 393 and in the assay on HL-60 was > 100 µM (inactive) throughout. The GI50 in the assay with KM12, with NCI/ADR-RES, in the assay on SK-MEL-2, in the assay with T47D and in the assay with MDA-MB-435 was > 100 µM (inactive) in each case.

Turning to `C=C1C(=O)C23CC1CCC2C12CO[C@H](O)[C@H]1C(C)(C)[C@H](OC(C)=O)C[C@H]2OC3=O` (stereo not given in full), the GI50 in the assay with TK-10 is 14.3 µM (inactive); with PC-3 it was > 100 µM (inactive); with NCI-H460 it was 34.6 µM (inactive); in the assay on OVCAR-8 it was 30.6 µM (inactive); in the assay on SK-MEL-28, 17.1 µM (inactive); with HT-29, 13.4 µM (inactive). In addition, the GI50 with NCI-H23 is 27.7 µM (inactive); in the assay with HCT-116 it was 14.8 µM (inactive); with COLO 205 it was 15.1 µM (inactive); in the assay on CAKI-1, 15.2 µM (inactive); in the assay on OVCAR-4 it was > 100 µM (inactive); with HL-60, 16.6 µM (inactive). Besides, the GI50 in the assay on SF-268 is 14.7 µM (inactive); with KM12, 23 µM (inactive); in the assay with NCI/ADR-RES, 28.1 µM (inactive); in the assay on SK-MEL-2, 15.3 µM (inactive); in the assay on T47D it was 19.7 µM (inactive); in the assay on EKVX, 15.1 µM (inactive). Further, the GI50 with MDA-MB-435 is 21.5 µM (inactive).
